This is an account of results in ChEMBL document CHEMBL1201862, “PubChem BioAssay data set” (2004).

Some test systems named below: SR; NCI-H460; Malme-3M; HT-29; M14; UO-31; MOLT-4; HOP-62; OVCAR-5; HCC 2998; RPMI-8226; EKVX; COLO 205; CCRF-CEM; U-251; OVCAR-4; OVCAR-8; SK-MEL-2; T47D; SW-620.
Experiment in all cases: NCI-60 cell line screen, 48 h

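Growth conditions: 96-well plates. Treatment: test compound, 48 hours, 5 concentrations. Analysis: linear interpolation between bracketing concentrations; unreached endpoints set to highest concentration. Abbreviation: GI50, concentration required for 50% inhibition of growth.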 Active and inactive are the calls of the source. Cut-off read from the data, not from the text of the source: active = GI50 up to about 1.1 µM and inactive = higher.

Take `COc1ccc(-c2nnc(CCCCCCCCc3nnc(-c4ccc(OC)cc4)n3N)n2N)cc1`: the GI50 in the assay with SR, in the assay on NCI-H460, with Malme-3M, in the assay with HT-29, in the assay on M14 and in the assay on UO-31 was > 100 µM (inactive) each time. In addition, the GI50 is > 100 µM (inactive) with MOLT-4; 28.2 µM (inactive) with HOP-62; > 100 µM (inactive) with OVCAR-5; > 100 µM (inactive) in the assay with HCC 2998; > 100 µM (inactive) with RPMI-8226; > 100 µM (inactive) with EKVX. Further, the GI50 in the assay on COLO 205 was > 100 µM (inactive); in the assay on CCRF-CEM it was > 100 µM (inactive); with U-251, > 56.9 µM (inactive); with OVCAR-4, > 100 µM (inactive); with OVCAR-8, > 31.6 µM (inactive); in the assay with SK-MEL-2, > 81.5 µM (inactive). Moreover, the GI50 in the assay on T47D and with SW-620 was > 100 µM (inactive) in each case.

As for `CNc1ncnc2c1cnn2CCCCO`, the GI50 with SR, in the assay on NCI-H460, in the assay on Malme-3M, in the assay on HT-29, in the assay on M14 and with UO-31 was > 100 µM (inactive) each time. The GI50 in the assay with MOLT-4, in the assay on HOP-62, in the assay on OVCAR-5, with HCC 2998, with RPMI-8226 and with EKVX was > 100 µM (inactive) in each case. Besides, the GI50 in the assay on COLO 205, in the assay with CCRF-CEM, in the assay with U-251, with OVCAR-4, with SK-MEL-2 and with T47D was > 100 µM (inactive) throughout. In addition, the GI50 in the assay on SW-620 was > 100 µM (inactive).

Consider `CN(C)CCNC(=O)c1cccc2ccc(-c3ccc(O)cc3)nc12`, for which the GI50 in the assay on SR was 2.47 µM (inactive); with NCI-H460 it was 0.548 µM (active); in the assay with Malme-3M, 1.05 µM (active); in the assay with HT-29 it was 3.13 µM (inactive); in the assay on M14 it was 0.664 µM (active); in the assay with UO-31, 2.39 µM (inactive). Also, the GI50 in the assay with MOLT-4 was 0.238 µM (active); with HOP-62 it was 1.47 µM (inactive); with OVCAR-5, 1.71 µM (inactive); with HCC 2998, 5.86 µM (inactive); with RPMI-8226 it was 2.39 µM (inactive); with EKVX, 8.36 µM (inactive). Moreover, the GI50 was 3.33 µM (inactive) with COLO 205; 1.35 µM (inactive) with CCRF-CEM; 2.06 µM (inactive) with U-251; 2.43 µM (inactive) with OVCAR-4; 1.38 µM (inactive) with OVCAR-8; 4.5 µM (inactive) in the assay on SK-MEL-2. Besides, the GI50 with T47D was 3.09 µM (inactive); in the assay on SW-620, 1.02 µM (active).

Take `COC(=O)/C=C\n1c(C)cc(=O)[nH]c1=O`: the GI50 in the assay on SR, in the assay with NCI-H460, in the assay with Malme-3M, with HT-29, with M14 and with UO-31 was > 100 µM (inactive) in each case. The GI50 in the assay with MOLT-4, in the assay with HOP-62, in the assay on OVCAR-5, in the assay on HCC 2998, with RPMI-8226 and in the assay on EKVX was > 100 µM (inactive) throughout. Moreover, the GI50 in the assay with COLO 205, in the assay on CCRF-CEM, in the assay with U-251, with OVCAR-4, in the assay on OVCAR-8 and in the assay with SK-MEL-2 was > 100 µM (inactive) in each case. For the same compound, the GI50 with T47D and in the assay on SW-620 was > 100 µM (inactive) each time.

As to `CCOC(=O)N1CC2(C(=O)OC)C=CC1C(C(=O)OC)C2` (centres undefined), the GI50 in the assay on SR, with NCI-H460, with Malme-3M, in the assay on M14, in the assay on UO-31 and in the assay with MOLT-4 was > 100 µM (inactive) in each case. In addition, the GI50 in the assay with HOP-62, with OVCAR-5, in the assay with HCC 2998, in the assay with RPMI-8226, in the assay on EKVX and in the assay with COLO 205 was > 100 µM (inactive) in each case. Also, the GI50 in the assay on CCRF-CEM, in the assay on U-251, with OVCAR-4, in the assay with OVCAR-8, in the assay on SK-MEL-2 and in the assay on T47D was > 100 µM (inactive) in each case. In addition, the GI50 with SW-620 is > 100 µM (inactive).

For `CCOC(=O)C1=C(C)N(Cc2ccccc2)C2(O)C(OC)CC(=O)C3C(=O)N(c4ccccc4)C(=O)C132` (centres undefined), the GI50 was 3.55 µM (inactive) with SR; 6.98 µM (inactive) with NCI-H460; 14.5 µM (inactive) with Malme-3M; 4.9 µM (inactive) in the assay on HT-29; 19.9 µM (inactive) in the assay on M14; 13.3 µM (inactive) with UO-31. In addition, the GI50 with MOLT-4 is 7.45 µM (inactive); in the assay with HOP-62 it was 6.81 µM (inactive); in the assay on OVCAR-5 it was 13.8 µM (inactive); in the assay with HCC 2998, 12.4 µM (inactive); with RPMI-8226, 2.69 µM (inactive); with EKVX, 23.7 µM (inactive). In addition, the GI50 with COLO 205 was 7.21 µM (inactive); in the assay on CCRF-CEM, 3.91 µM (inactive); in the assay with U-251, 6.53 µM (inactive); in the assay with OVCAR-4, 4.84 µM (inactive); with OVCAR-8, 5.53 µM (inactive); in the assay with SK-MEL-2, 7.57 µM (inactive). Further, the GI50 with T47D was 4.28 µM (inactive); in the assay with SW-620, 4.93 µM (inactive).

`Oc1ccc(/C=N/NC(=S)Nc2cccnc2)nc1`: the GI50 was 0.134 µM (active) in the assay with SR; 2.07 µM (inactive) in the assay on Malme-3M; 5.33 µM (inactive) in the assay with HT-29; 6.1 µM (inactive) in the assay with M14; 2.78 µM (inactive) with UO-31; 2.8 µM (inactive) in the assay with MOLT-4. Besides, the GI50 with HOP-62 was 12 µM (inactive); in the assay on OVCAR-5 it was 40.3 µM (inactive); in the assay with HCC 2998 it was > 51.1 µM (inactive); in the assay on RPMI-8226, 16.7 µM (inactive); in the assay on EKVX it was 12.6 µM (inactive); in the assay with COLO 205 it was 3.98 µM (inactive). Besides, the GI50 with CCRF-CEM was 3.27 µM (inactive); in the assay on U-251, 6.22 µM (inactive); in the assay on OVCAR-4, > 76.6 µM (inactive); in the assay on OVCAR-8, 2.79 µM (inactive); with SK-MEL-2 it was 7.08 µM (inactive); in the assay on T47D, 8.69 µM (inactive). Moreover, the GI50 in the assay on SW-620 was 4.82 µM (inactive).

Regarding `COc1cc(-c2nc3ccccn3c2/N=C/c2cc(Br)cc(Br)c2O)ccc1O`, the GI50 with SR is 25.9 µM (inactive); with NCI-H460, 35.1 µM (inactive); in the assay on Malme-3M, 23.3 µM (inactive); in the assay on HT-29, 22.3 µM (inactive); in the assay on M14 it was 18.2 µM (inactive); in the assay on UO-31 it was 13.7 µM (inactive). The GI50 with MOLT-4 was 22.9 µM (inactive); in the assay with HOP-62, 21.6 µM (inactive); with OVCAR-5, 31.4 µM (inactive); in the assay on HCC 2998 it was 79.6 µM (inactive); with RPMI-8226 it was 24.7 µM (inactive); in the assay with EKVX, 19.1 µM (inactive). For the same compound, the GI50 with COLO 205 was 26.9 µM (inactive); in the assay with CCRF-CEM it was 17.7 µM (inactive); in the assay on U-251, 15.6 µM (inactive); in the assay on OVCAR-4, 19.4 µM (inactive); with OVCAR-8 it was 23.4 µM (inactive); with SK-MEL-2, 22.3 µM (inactive). The results for the GI50 with T47D and in the assay with SW-620 were 23.3 µM (inactive) and 26.4 µM (inactive), respectively.

Turning to `N#Cc1c(N)c2c(c(-c3ccccc3)c1-c1ccccc1)C(=O)N(Nc1ccccc1)C2=O`, the GI50 is 36.2 µM (inactive) in the assay on SR; 34 µM (inactive) with NCI-H460; > 100 µM (inactive) in the assay with Malme-3M; 22.2 µM (inactive) in the assay with M14; 24.7 µM (inactive) with UO-31; 27.4 µM (inactive) in the assay with MOLT-4. For the same compound, the GI50 with OVCAR-5 was 27 µM (inactive); in the assay on HCC 2998, 35.8 µM (inactive); in the assay with RPMI-8226 it was 29.5 µM (inactive); in the assay on EKVX, 42.4 µM (inactive); in the assay with COLO 205 it was 20.7 µM (inactive); in the assay on CCRF-CEM it was 31.6 µM (inactive). For the same compound, the GI50 with U-251 was 93.5 µM (inactive); in the assay on OVCAR-4, 35.1 µM (inactive); with OVCAR-8, 78.3 µM (inactive); with SK-MEL-2 it was 30.1 µM (inactive); in the assay on T47D, 19.4 µM (inactive); in the assay with SW-620 it was > 100 µM (inactive).

As to `CO[C@H]1C[C@@H]2CC[C@@H](C)[C@@](O)(O2)C(=O)C(=O)N2CCCC[C@H]2C(=O)O[C@H]([C@H](C)C[C@@H]2CC[C@@H](OC(=O)C(C)(CO)CO)[C@H](OC)C2)CC(=O)[C@H](C)/C=C(\C)[C@@H](O)[C@@H](OC)C(=O)[C@H](C)C[C@H](C)/C=C/C=C/C=C/1C` [TEMSIROLIMUS], the GI50 in the assay with SR is 0.000361 µM (active); with NCI-H460 it was 0.0678 µM (active); with Malme-3M, 0.000199 µM (active); in the assay with HT-29 it was 0.0376 µM (active); in the assay on M14, 0.0417 µM (active); in the assay on UO-31, 0.00496 µM (active). The GI50 with MOLT-4 is 0.00176 µM (active); in the assay with HOP-62, 0.00125 µM (active); with OVCAR-5, 0.00363 µM (active); with HCC 2998, 1.82 µM (inactive); in the assay with RPMI-8226, 0.000292 µM (active); in the assay on EKVX, 0.0185 µM (active). Further, the GI50 was 3.98 µM (inactive) with COLO 205; 0.00177 µM (active) in the assay with CCRF-CEM; 0.0247 µM (active) in the assay on OVCAR-4; 0.00388 µM (active) in the assay on OVCAR-8; 0.051 µM (active) in the assay with SK-MEL-2; 0.000995 µM (active) in the assay on T47D. Besides, the GI50 with SW-620 was 4.23 µM (inactive).
